Tests used:
αS = αS (Homo sapiens, UniProt P37840); conditions: in vitro; cited from earlier work
[1] = tested on: patients with PD and constipation; assay: Phase 2 trial Stage 1: adverse events; assay type: in vivo, human
From the text: Tolerability limits included diarrhea or vomiting.

[2] = tested on: patients with PD and constipation; assay: Phase 2 trial Stage 2: bowel function under daily oral dosing (escalation, fixed dose, wash-out); assay type: in vivo, human
Protocol: Following successful screening, all subjects underwent a 14-day run-in period where the degree of constipation was assessed through a validated daily log (Zinsmeister et al. 2013) establishing baseline CSBMs/week. Subjects with an average of <3 CSBMs/week proceeded to dosing.
In Stage 2, 34 patients were evaluated.
The primary efficacy outcome variable was whether or not a subject was a “success” or “failure”. This is an endpoint based on subject diary entries for the “fixed dose” period prior to the endpoint assessment defined as average complete stool frequency increase by 1 or more over baseline, or 3 or more complete spontaneous stools/week. The subject was deemed a “success” if s/he met one or more of the criteria listed above, otherwise the subject was deemed a “failure”. The primary analysis was based on all subjects with a baseline assessment and an assessment at the end of the “fixed-dose” period and was a comparison of the proportion of successes with 0.10 (the null hypothesis corresponding to no treatment effect).

[3] = Stage 1, 10 dosed, unrelated to ENT-01

CC(C)[C@@H](CC[C@@H](C)[C@H]1CC[C@H]2[C@@H]3[C@H](O)C[C@H]4C[C@@H](NCCCNCCCCN)CC[C@]4(C)[C@H]3CC[C@]12C)OS(=O)(=O)O (single isomer, unassigned) [squalamine (ENT-01), squalamine]
displacement of αS from membranes (αS): can displace αS from membranes | AEs confined to the GI tract ([1]; Stage 1): 88% | Diarrhea (common adverse events by dose) ([1]; Stage 1, 25 mg): 1 | Nausea (common adverse events by dose) ([1]; Stage 1, 25 mg): 0 | Vomiting (common adverse events by dose) ([1]; Stage 1, 25 mg): 0 | Diarrhea (common adverse events by dose) ([1]; Stage 1, 50 mg): 1 | Nausea (common adverse events by dose) ([1]; Stage 1, 50 mg): 0 | Vomiting (common adverse events by dose) ([1]; Stage 1, 50 mg): 0 | Diarrhea (common adverse events by dose) ([1]; Stage 1, 75 mg): 1 | Nausea (common adverse events by dose) ([1]; Stage 1, 75 mg): 0 | Vomiting (common adverse events by dose) ([1]; Stage 1, 75 mg): 0 | Diarrhea (common adverse events by dose) ([1]; Stage 1, 100 mg): 0 | Nausea (common adverse events by dose) ([1]; Stage 1, 100 mg): 1 | Vomiting (common adverse events by dose) ([1]; Stage 1, 100 mg): 1 | Diarrhea (common adverse events by dose) ([1]; Stage 1, 125 mg): 1 | Nausea (common adverse events by dose) ([1]; Stage 1, 125 mg): 2 | Vomiting (common adverse events by dose) ([1]; Stage 1, 125 mg): 1 | Diarrhea (common adverse events by dose) ([1]; Stage 1, 150 mg): 1 | Nausea (common adverse events by dose) ([1]; Stage 1, 150 mg): 0 | Vomiting (common adverse events by dose) ([1]; Stage 1, 150 mg): 0 | Diarrhea (common adverse events by dose) ([1]; Stage 1, 175 mg): 1 | Nausea (common adverse events by dose) ([1]; Stage 1, 175 mg): 1 | Vomiting (common adverse events by dose) ([1]; Stage 1, 175 mg): 0 | Diarrhea (common adverse events by dose) ([1]; Stage 1, 200 mg): 0 | Nausea (common adverse events by dose) ([1]; Stage 1, 200 mg): 2 | Vomiting (common adverse events by dose) ([1]; Stage 1, 200 mg): 0 | patients with diarrhea ([1]; Stage 1, 4/10 patients): 40% | patients with nausea ([1]; Stage 1, 4/10 patients): 40% | Abdominal pain, Mild ([1]; Stage 1, 10 dosed): 2 (20) n, % | Abdominal pain, Moderate ([1]; Stage 1, 10 dosed): 3 (30) n, % | Blood in urine, Moderate ([1]; Stage 1, 10 dosed): 0 n, % | Diarrhea, Mild ([1]; Stage 1, 10 dosed): 1 (10) n, % | Diarrhea, Moderate ([1]; Stage 1, 10 dosed): 3 (30) n, % | Diarrhea, Severe ([1]; Stage 1, 10 dosed): 0 n, % | Difficulty falling asleep, Mild ([1]; Stage 1, 10 dosed): 0 n, % | Difficulty falling asleep, Moderate ([1]; Stage 1, 10 dosed): 0 n, % | Dizziness, Mild ([1]; Stage 1, 10 dosed): 0 n, % | Dizziness, Moderate ([1]; Stage 1, 10 dosed): 0 n, % | Eye infection, Mild ([1]; Stage 1, 10 dosed): 0 n, % | Eye infection, Moderate ([1]; Stage 1, 10 dosed): 0 n, % | Flatulence, Mild ([1]; Stage 1, 10 dosed): 2 (20) n, % | Flatulence, Moderate ([1]; Stage 1, 10 dosed): 0 n, % | Headache, Mild ([1]; Stage 1, 10 dosed): 1 (10) n, % | Headache, Moderate ([1]; Stage 1, 10 dosed): 0 n, % | Increased urinary frequency, Mild ([1]; Stage 1, 10 dosed): 0 n, % | Increased urinary frequency, Moderate ([1]; Stage 1, 10 dosed): 0 n, % | Loss of appetite, Moderate ([1]; Stage 1, 10 dosed): 0 n, % | Lower GI bleed, Severe ([1]; Stage 1, 10 dosed): 0 n, % | Nausea, Mild ([1]; Stage 1, 10 dosed): 4 (40) n, % | Nausea, Moderate ([1]; Stage 1, 10 dosed): 0 n, % | Skin lesions-rash, Mild ([1]; Stage 1, 10 dosed): 0 n, % | Skin lesions-rash, Moderate ([1]; Stage 1, 10 dosed): 0 n, % | Urinary retention, Mild ([1]; Stage 1, 10 dosed): 0 n, % | Urinary retention, Moderate ([1]; Stage 1, 10 dosed): 0 n, % | Urinary tract infection, Mild ([1]; Stage 1, 10 dosed): 0 n, % | Urinary tract infection, Moderate ([1]; Stage 1, 10 dosed): 0 n, % | Vomiting, Mild ([1]; Stage 1, 10 dosed): 1 (10) n, % | Vomiting, Moderate ([1]; Stage 1, 10 dosed): 0 n, % | Worsening acid reflux, Mild ([1]; Stage 1, 10 dosed): 0 n, % | Worsening acid reflux, Moderate ([1]; Stage 1, 10 dosed): 0 n, % | Worsening hemorrhoid, Mild ([1]; Stage 1, 10 dosed): 0 n, % | Worsening hemorrhoid, Moderate ([1]; Stage 1, 10 dosed): 0 n, % | Blood in urine, Mild [1, 3]: 1 (10) n, % | Loss of appetite, Mild [1, 3]: 1 (10) n, % | improvement of ease of passage ([2]; 3.2 to 3.7): 16% | response rate (CSBM within 24 hours of dosing on at least 2 of 3 days) ([2]; Stage 2, daily oral dosing, 75 mg): 26% | CSBM, weekly average ([2]; Stage 2, fixed dose, mean (SD), n = 34, baseline 1.2 (0.90)): 3.8 (2.4) CSBM/week | Suppository use / rescue medication, weekly average ([2]; Stage 2, fixed dose, mean (SD), n = 34, baseline 1.8 (1.92)): 0.3 (0.67) /week | Consistency (Bristol stool scale 1-7) ([2]; Stage 2, fixed dose, mean (SD), n = 34, baseline 2.7 (1.20), listed as aminosterol): 4.1 | Ease of passage (Ease of evacuation scale 1-7) ([2]; Stage 2, fixed dose, mean (SD), n = 34, baseline 3.2 (0.73), listed as aminosterol): 3.7 | PAQ-SYM ([2]; Stage 2, wash-out, mean (SD), baseline 1.3 (0.45)): 1.1 (0.60) | PAQ-QOL ([2]; Stage 2, wash-out, mean (SD), baseline 1.4 (0.49)): 1.2 (0.63) | Rescue meds ([2]; Stage 2, wash-out, mean (SD), baseline 1.8 (1.92)): 1.0 (1.40) | Consistency ([2]; Stage 2, wash-out, mean (SD), baseline 2.7 (1.20)): 2.8 (1.39) | Ease ([2]; Stage 2, wash-out, mean (SD), baseline 3.2 (0.73)): 3.3 (0.81) | improvement of average CSBM/week ([2]; baseline 1.2 to fixed dose 3.8): 216% | decrease of use of rescue medication ([2]; baseline 1.8/week to fixed dose 0.3): 83% | improvement of SBM ([2]; baseline 2.6 to fixed dose 4.5): 73% | CSBM frequency in the randomized cohort ([2]; group later randomized to placebo (n = 9), fixed dose period (still on drug), baseline 1.6): 3.3 CSBM/week | CSBM frequency in the randomized cohort ([2]; group randomized to treatment (n = 6), fixed dose period, baseline 0.8): 3.2 CSBM/week | CSBM frequency in the randomized cohort ([2]; group randomized to treatment (n = 6), randomized period (4-6 days continued treatment), baseline 0.8): 2.4 CSBM/week | CSBM frequency in the randomized cohort ([2]; group randomized to treatment (n = 6), washout, baseline 0.8): 0.9 CSBM/week | improvement of consistency (Bristol stool scale) ([2]; mean 2.7 to 4.1): 52% | mean dose required for a bowel response (prokinetic dose) ([2]; patients with baseline ≥1 CSBM/week): 120 mg | patients responding ([2]; within effective dose range 75 mg to 250 mg): 85%

— US20200038412A1, “METHODS OF TREATING ALZHEIMER'S DISEASE USING AMINOSTEROL COMPOSITIONS” (Enterin, Inc., priority 2018, published 2020)
